Measurements: US8933230B2, “Phosphorus-containing group-substituted quinoline, its preparation process, medical composition containing the compounds and application” (priority 2011, dated 2015)

Legend:
Assay in all cases: KinomeScan kinase panel
Type in all cases: binding
[1] = target: T1, ABL1(F317I)-phosphorylated (Homo sapiens, UniProt P00519, F317I)
T1 construct: purchased DiscoveRx Corporation (KinomeScan)
In short: (§1)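 Inhibitory effect at a 1000 nM single dose, determined in KinomeScan's 442-kinase panel.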

BMPR1B = target: T2, BMPR1B (Homo sapiens, UniProt O00238)
T2 construct: purchased DiscoveRx Corporation (KinomeScan)
T2 sequence (O00238 14-502): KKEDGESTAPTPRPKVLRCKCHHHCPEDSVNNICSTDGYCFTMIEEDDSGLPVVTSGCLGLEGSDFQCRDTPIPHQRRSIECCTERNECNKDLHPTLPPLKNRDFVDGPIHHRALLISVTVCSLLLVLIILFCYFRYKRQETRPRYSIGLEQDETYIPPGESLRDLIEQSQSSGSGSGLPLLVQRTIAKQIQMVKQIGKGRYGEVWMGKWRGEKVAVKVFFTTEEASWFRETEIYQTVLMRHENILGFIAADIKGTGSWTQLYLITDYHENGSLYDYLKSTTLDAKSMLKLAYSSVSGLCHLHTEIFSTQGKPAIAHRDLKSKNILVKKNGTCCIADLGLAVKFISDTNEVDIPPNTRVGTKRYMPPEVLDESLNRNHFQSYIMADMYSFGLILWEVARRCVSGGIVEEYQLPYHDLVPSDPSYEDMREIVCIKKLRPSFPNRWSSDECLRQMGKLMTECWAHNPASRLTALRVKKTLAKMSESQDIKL
In short: as §1

BRAF = target: T3, BRAF (Homo sapiens, UniProt P15056)
T3 construct: purchased DiscoveRx Corporation (KinomeScan)
In short: as §1

CAMK2G = target: T4, CAMK2G (Homo sapiens, UniProt Q13555)
T4 construct: purchased DiscoveRx Corporation (KinomeScan)
In short: as §1

CLK3 = target: T5, CLK3 (Homo sapiens, UniProt P49761)
T5 construct: purchased DiscoveRx Corporation (KinomeScan)
In short: as §1

CSK = target: T6, CSK (Homo sapiens, UniProt P41240)
T6 construct: purchased DiscoveRx Corporation (KinomeScan)
T6 sequence (P41240 whole entry): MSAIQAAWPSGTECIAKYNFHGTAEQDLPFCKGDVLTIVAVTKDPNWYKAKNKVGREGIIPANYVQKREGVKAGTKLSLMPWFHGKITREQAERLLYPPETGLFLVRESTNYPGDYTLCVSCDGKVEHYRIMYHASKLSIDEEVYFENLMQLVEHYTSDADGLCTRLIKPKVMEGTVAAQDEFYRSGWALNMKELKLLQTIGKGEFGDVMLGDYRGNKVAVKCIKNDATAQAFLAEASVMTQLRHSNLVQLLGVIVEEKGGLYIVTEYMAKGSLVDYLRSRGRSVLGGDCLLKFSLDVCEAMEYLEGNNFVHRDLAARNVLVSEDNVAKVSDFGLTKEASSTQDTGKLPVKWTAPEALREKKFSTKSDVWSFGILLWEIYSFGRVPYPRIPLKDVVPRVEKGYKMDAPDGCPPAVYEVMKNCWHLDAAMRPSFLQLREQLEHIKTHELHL
In short: as §1

EGFR(L747-E749del,A750P) = target: T7, EGFR(L747-E749del,A750P) (Homo sapiens, UniProt P00533, A750P/DEL747-749)
T7 construct: purchased DiscoveRx Corporation (KinomeScan)
In short: as §1

EGFR(L861Q) = target: T8, EGFR(L861Q) (Homo sapiens, UniProt P00533, L861Q)
T8 construct: purchased DiscoveRx Corporation (KinomeScan)
In short: as §1

EPHA2 = target: T9, EPHA2 (Homo sapiens, UniProt P29317)
T9 construct: purchased DiscoveRx Corporation (KinomeScan)
In short: as §1

EPHA8 = target: T10, EPHA8 (Homo sapiens, UniProt P29322)
T10 construct: purchased DiscoveRx Corporation (KinomeScan)
In short: as §1

ERBB4 = target: T11, ERBB4 (Homo sapiens, UniProt Q15303)
T11 construct: purchased DiscoveRx Corporation (KinomeScan)
In short: as §1

FLT3(N841L) = test system: FLT3(N841L)
In short: as §1

HPK1 = target: T12, HPK1 (Homo sapiens, UniProt Q92918)
T12 construct: purchased DiscoveRx Corporation (KinomeScan)
In short: as §1

INSR = target: T13, INSR (Homo sapiens, UniProt P06213)
T13 construct: purchased DiscoveRx Corporation (KinomeScan)
In short: as §1

IRAK4 = target: T14, IRAK4 (Homo sapiens, UniProt Q9NWZ3)
T14 construct: purchased DiscoveRx Corporation (KinomeScan)
In short: as §1

[2] = target: T15, JAK2(JH1domain-catalytic) (Homo sapiens, UniProt O60674)
T15 construct: JAK2(JH1domain-catalytic); purchased DiscoveRx Corporation (KinomeScan)
T15 sequence (O60674 849-1124 limits assumed): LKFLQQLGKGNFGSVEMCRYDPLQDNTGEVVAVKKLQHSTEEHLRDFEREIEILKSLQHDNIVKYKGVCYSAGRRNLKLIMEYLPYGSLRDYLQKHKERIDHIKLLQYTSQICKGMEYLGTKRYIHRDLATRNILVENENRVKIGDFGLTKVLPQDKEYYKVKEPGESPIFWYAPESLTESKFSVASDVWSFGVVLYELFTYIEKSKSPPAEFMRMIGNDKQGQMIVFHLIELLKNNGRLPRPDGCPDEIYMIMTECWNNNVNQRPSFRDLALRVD
In short: as §1

LIMK1 = target: T16, LIMK1 (Homo sapiens, UniProt P53667)
T16 construct: purchased DiscoveRx Corporation (KinomeScan)
In short: as §1

MAPKAPK2 = target: T17, MAPKAPK2 (Homo sapiens, UniProt P49137)
T17 construct: purchased DiscoveRx Corporation (KinomeScan)
In short: as §1

MEK2 = target: T18, MEK2 (Homo sapiens, UniProt P36507)
T18 construct: purchased DiscoveRx Corporation (KinomeScan)
T18 sequence (P36507 whole entry): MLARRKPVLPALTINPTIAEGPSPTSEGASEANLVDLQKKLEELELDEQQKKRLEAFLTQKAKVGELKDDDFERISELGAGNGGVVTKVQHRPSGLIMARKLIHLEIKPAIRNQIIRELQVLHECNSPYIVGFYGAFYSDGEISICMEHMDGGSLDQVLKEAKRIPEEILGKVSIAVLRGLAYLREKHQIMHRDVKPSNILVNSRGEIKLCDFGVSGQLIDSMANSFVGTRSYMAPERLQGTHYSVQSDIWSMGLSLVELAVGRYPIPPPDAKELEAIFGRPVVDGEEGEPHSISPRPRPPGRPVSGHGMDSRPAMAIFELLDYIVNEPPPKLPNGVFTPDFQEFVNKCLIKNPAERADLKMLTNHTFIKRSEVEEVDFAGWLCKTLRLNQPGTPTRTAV
In short: as §1

MEK4 = target: T19, MEK4 (Homo sapiens, UniProt P45985)
T19 construct: purchased DiscoveRx Corporation (KinomeScan)
In short: as §1

MET(M1250T) = target: T20, MET(M1250T) (Homo sapiens, UniProt P08581, M1250T)
T20 construct: purchased DiscoveRx Corporation (KinomeScan)
In short: as §1

MKNK2 = target: T21, MKNK2 (Homo sapiens, UniProt Q9HBH9)
T21 construct: purchased DiscoveRx Corporation (KinomeScan)
In short: as §1

MTOR = target: T22, MTOR (Homo sapiens, UniProt P42345)
T22 construct: purchased DiscoveRx Corporation (KinomeScan)
In short: as §1

MYLK = target: T23, MYLK (Homo sapiens, UniProt Q15746)
T23 construct: purchased DiscoveRx Corporation (KinomeScan)
T23 sequence (Q15746 whole entry): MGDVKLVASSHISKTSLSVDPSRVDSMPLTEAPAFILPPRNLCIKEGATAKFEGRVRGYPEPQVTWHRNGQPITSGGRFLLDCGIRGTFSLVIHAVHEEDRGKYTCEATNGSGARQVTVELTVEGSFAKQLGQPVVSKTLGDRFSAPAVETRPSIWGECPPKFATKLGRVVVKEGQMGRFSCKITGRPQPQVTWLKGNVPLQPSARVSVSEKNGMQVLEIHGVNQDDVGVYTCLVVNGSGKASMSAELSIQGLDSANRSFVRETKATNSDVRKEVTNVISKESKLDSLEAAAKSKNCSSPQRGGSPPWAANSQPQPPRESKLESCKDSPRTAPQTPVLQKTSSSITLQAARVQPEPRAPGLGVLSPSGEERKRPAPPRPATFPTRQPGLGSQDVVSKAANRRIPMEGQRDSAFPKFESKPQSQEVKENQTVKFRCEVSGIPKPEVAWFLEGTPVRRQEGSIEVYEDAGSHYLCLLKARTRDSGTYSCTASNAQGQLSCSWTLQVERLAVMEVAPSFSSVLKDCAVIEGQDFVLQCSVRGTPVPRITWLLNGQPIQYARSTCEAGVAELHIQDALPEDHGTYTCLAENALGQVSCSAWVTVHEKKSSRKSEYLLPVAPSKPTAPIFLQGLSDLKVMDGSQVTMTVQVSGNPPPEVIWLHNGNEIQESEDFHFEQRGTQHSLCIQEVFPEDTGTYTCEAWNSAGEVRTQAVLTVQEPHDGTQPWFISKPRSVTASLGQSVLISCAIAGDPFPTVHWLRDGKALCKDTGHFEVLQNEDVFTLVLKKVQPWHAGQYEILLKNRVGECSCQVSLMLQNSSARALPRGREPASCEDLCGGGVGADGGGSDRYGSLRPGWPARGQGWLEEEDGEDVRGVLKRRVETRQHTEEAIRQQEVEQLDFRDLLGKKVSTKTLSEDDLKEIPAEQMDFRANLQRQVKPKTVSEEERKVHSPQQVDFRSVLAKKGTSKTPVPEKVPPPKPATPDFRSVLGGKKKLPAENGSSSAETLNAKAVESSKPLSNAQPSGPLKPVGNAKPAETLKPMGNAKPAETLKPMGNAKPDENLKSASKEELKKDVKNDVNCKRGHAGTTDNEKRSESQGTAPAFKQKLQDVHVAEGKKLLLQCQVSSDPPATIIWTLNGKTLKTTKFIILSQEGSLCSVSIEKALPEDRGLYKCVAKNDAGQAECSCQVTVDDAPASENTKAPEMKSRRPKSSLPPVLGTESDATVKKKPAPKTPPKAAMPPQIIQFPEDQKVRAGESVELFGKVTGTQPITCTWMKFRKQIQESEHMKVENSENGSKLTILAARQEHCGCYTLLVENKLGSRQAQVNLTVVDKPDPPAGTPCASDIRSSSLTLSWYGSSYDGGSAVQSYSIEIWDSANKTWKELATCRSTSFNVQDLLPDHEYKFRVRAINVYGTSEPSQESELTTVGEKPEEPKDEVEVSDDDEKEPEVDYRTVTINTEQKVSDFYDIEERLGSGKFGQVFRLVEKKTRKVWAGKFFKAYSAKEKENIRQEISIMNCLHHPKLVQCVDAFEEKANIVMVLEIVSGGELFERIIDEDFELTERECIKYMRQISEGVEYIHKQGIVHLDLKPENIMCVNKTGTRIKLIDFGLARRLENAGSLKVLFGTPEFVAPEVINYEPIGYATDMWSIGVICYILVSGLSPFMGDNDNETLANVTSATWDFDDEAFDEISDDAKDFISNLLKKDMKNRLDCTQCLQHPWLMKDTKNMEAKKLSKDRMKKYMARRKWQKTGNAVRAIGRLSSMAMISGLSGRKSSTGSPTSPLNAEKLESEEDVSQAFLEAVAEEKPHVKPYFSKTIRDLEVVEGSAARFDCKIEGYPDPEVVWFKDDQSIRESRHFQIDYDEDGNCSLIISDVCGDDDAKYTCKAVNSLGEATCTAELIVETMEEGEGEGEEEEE
In short: as §1

NEK11 = target: T24, NEK11 (Homo sapiens, UniProt Q8NG66)
T24 construct: purchased DiscoveRx Corporation (KinomeScan)
In short: as §1

PAK6 = target: T25, PAK6 (Homo sapiens, UniProt Q9NQU5)
T25 construct: purchased DiscoveRx Corporation (KinomeScan panel)
In short: as §1

PIP5K2B = target: T26, PIP5K2B (Homo sapiens, UniProt P78356)
T26 construct: purchased DiscoveRx Corporation (KinomeScan)
T26 sequence (P78356 whole entry): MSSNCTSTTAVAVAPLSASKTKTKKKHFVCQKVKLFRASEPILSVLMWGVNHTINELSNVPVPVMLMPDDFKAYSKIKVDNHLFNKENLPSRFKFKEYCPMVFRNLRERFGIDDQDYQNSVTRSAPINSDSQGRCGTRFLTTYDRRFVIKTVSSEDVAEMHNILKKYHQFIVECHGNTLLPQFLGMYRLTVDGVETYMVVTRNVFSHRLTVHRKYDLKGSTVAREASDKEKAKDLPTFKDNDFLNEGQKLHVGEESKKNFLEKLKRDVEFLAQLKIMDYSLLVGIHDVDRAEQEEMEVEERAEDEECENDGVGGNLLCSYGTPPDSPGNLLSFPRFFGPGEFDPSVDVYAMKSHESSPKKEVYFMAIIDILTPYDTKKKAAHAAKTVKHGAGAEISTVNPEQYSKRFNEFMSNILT
In short: as §1

PRKCD = target: T27, PRKCD (Homo sapiens, UniProt Q05655)
T27 construct: purchased DiscoveRx Corporation (KinomeScan)
In short: as §1

PRKX = target: T28, PRKX (Homo sapiens, UniProt P51817)
T28 construct: purchased DiscoveRx Corporation
In short: as §1

RIOK2 = target: T29, RIOK2 (Homo sapiens, UniProt Q9BVS4)
T29 construct: purchased DiscoveRx Corporation
In short: as §1

RIPK4 = target: T30, RIPK4 (Homo sapiens, UniProt P57078)
T30 construct: purchased DiscoveRx Corporation
In short: as §1

[3] = target: T31, RSK4(Kin.Dom.1-N-terminal) (Homo sapiens, UniProt Q9UK32)
T31 construct: Kin.Dom.1; purchased DiscoveRx Corporation (KinomeScan)
T31 sequence (Q9UK32 73-330 limits assumed): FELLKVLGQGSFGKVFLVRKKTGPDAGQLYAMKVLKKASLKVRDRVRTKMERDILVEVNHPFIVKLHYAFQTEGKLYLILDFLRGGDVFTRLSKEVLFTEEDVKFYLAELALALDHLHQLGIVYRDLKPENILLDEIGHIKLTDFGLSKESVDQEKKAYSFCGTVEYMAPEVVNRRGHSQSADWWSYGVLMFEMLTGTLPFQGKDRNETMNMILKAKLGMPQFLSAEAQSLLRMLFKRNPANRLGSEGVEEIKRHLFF
In short: as §1

TIE1 = target: T32, TIE1 (Homo sapiens, UniProt P35590)
T32 construct: purchased DiscoveRx Corporation (KinomeScan)
In short: as §1

TIE2 = target: T33, TIE2 (Homo sapiens, UniProt Q02763)
T33 construct: purchased DiscoveRx Corporation (KinomeScan)
In short: as §1

ZAK = target: T34, ZAK (Homo sapiens, UniProt Q9NYL2)
T34 construct: purchased DiscoveRx Corporation (KinomeScan service)
T34 sequence (Q9NYL2 whole entry): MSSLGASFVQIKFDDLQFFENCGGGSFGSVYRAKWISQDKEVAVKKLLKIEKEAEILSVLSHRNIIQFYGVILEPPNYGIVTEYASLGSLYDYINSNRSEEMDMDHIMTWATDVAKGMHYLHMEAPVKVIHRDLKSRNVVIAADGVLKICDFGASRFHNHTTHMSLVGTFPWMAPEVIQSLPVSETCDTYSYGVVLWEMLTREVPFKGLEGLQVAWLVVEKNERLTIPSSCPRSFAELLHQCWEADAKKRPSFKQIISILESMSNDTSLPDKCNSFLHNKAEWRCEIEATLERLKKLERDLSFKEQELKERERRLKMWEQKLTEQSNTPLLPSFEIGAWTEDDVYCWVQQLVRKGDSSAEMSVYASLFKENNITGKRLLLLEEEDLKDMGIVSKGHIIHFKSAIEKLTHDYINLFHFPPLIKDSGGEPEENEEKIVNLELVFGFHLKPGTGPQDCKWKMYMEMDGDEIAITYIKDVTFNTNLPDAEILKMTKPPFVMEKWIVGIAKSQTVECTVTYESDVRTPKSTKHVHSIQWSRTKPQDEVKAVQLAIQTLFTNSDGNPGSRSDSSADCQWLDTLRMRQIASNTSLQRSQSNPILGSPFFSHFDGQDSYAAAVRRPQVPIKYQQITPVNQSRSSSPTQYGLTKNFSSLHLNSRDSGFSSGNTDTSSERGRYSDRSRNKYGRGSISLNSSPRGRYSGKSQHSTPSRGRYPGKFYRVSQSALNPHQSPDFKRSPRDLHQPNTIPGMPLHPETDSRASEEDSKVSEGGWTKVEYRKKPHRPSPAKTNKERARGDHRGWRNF
In short: as §1

SMILES: CCOP(=O)(CN1CCC(COc2cc3nccc(Oc4ccc(NC(=O)C5(C(=O)Nc6ccc(F)cc6)CC5)cc4F)c3cc2OC)CC1)OCC [Example 10, N1-[4-[[7-[[1-(diethoxyphosphorylmethyl)-4-piperidinyl]methoxyl]-6-methoxyl-4-quinolyl]oxyl]-3-fluorophenyl]-N1′-(4-fluorophenyl)cyclopropane-1,1-dicarboxamide]
- % Ctrl@1000 nM [1]: 70 % Ctrl
- % Ctrl@1000 nM (BMPR1B): 100 % Ctrl
- % Ctrl@1000 nM (BRAF): 100 % Ctrl
- % Ctrl@1000 nM (CAMK2G): 100 % Ctrl
- % Ctrl@1000 nM (CLK3): 100 % Ctrl
- % Ctrl@1000 nM (CSK): 14 % Ctrl
- % Ctrl@1000 nM (EGFR(L747-E749del,A750P)): 67 % Ctrl
- % Ctrl@1000 nM (EGFR(L861Q)): 84 % Ctrl
- % Ctrl@1000 nM (EPHA2): 4.8 % Ctrl
- % Ctrl@1000 nM (EPHA8): 0.15 % Ctrl
- % Ctrl@1000 nM (ERBB4): 100 % Ctrl
- % Ctrl@1000 nM (FLT3(N841L)): 0 % Ctrl
- % Ctrl@1000 nM (HPK1): 40 % Ctrl
- % Ctrl@1000 nM (INSR): 54 % Ctrl
- % Ctrl@1000 nM (IRAK4): 100 % Ctrl
- % Ctrl@1000 nM [2]: 100 % Ctrl
- % Ctrl@1000 nM (LIMK1): 92 % Ctrl
- % Ctrl@1000 nM (MAPKAPK2): 100 % Ctrl
- % Ctrl@1000 nM (MEK2): 33 % Ctrl
- % Ctrl@1000 nM (MEK4): 100 % Ctrl
- % Ctrl@1000 nM (MET(M1250T)): 3 % Ctrl
- % Ctrl@1000 nM (MKNK2): 0.05 % Ctrl
- % Ctrl@1000 nM (MTOR): 100 % Ctrl
- % Ctrl@1000 nM (MYLK): 100 % Ctrl
- % Ctrl@1000 nM (NEK11): 100 % Ctrl
- % Ctrl@1000 nM (PAK6): 87 % Ctrl
- % Ctrl@1000 nM (PIP5K2B): 100 % Ctrl
- % Ctrl@1000 nM (PRKCD): 100 % Ctrl
- % Ctrl@1000 nM (PRKX): 81 % Ctrl
- % Ctrl@1000 nM (RIOK2): 100 % Ctrl
- % Ctrl@1000 nM (RIPK4): 89 % Ctrl
- % Ctrl@1000 nM [3]: 77 % Ctrl
- % Ctrl@1000 nM (TIE1): 4 % Ctrl
- % Ctrl@1000 nM (TIE2): 2.4 % Ctrl
- % Ctrl@1000 nM (ZAK): 36 % Ctrl
